# Source: patent US20170106011A1, “METHODS OF TREATING TRAUMATIC BRAIN INJURY AND SEQUELAE” (Cantex Pharmaceuticals, Inc., priority 2015, published 2017)
# “Also recorded” adds a separate entry of the source.
# Tests used:
# [1] = USP anticoagulant assay; assay type: biochemical
# [2] = tested on: middle cerebral artery occlusion animal model; experiment: secondary brain injury after middle cerebral artery occlusion in an animal model; assay type: in vivo
# [3] = tested on: patients with moderate TBI; experiment: clinical trial of ODSH infusion in moderate TBI; assay type: in vivo; conditions: ODSH infusion added to best supportive care
# Procedure: FIG. 4 outlines the phase II clinical trial of ODSH for treating TBI.
# A clinical trial is conducted.
# Enrollment criteria are (i) moderate TBI: Glasgow Coma Score (GCS) of 9-12, or if patient is intubated, GCS 7-9; (ii) cerebral contusions on CT scan. Patients are randomized into 2 groups. Both groups receive best supportive care. This is an active treatment control. One group additionally receives infusion of ODSH.
# [4] = comparator, Rao et al. 2010; cited from earlier work
Substance,anticoagulant activity in the USP anticoagulant assay [1],anticoagulant activity in the USP anticoagulant assay (e.g. value) [1],secondary brain injury [2],inflammatory biomarkers [3],Glasgow Outcome Scale scores ([3]; at 6 months),Montreal Cognitive Assessment (MoCA) score ([3]; six months post-injury),activity in the USP anticoagulant assay [4]
"2-O, 3-O-desulfated heparin [ODSH]",less than 9 U/mg,7±0.3 U,reduction of secondary brain injury; also recorded: reduced secondary brain injury,reduces,improves,improves,
unfractionated heparin,,,,,,,165-190 U/mg
